Target: DNA-PK (Homo sapiens, UniProt P78527)
Test: DNA-PK inhibition assay (standard radiometric 33P-ATP kinase assay)
Format: biochemical
Details: 100 μM ATP, approx. 6 nM DNA-PK
Procedure: Compounds were screened for their ability to inhibit DNA-PK kinase using a standard radiometric assay. Briefly, in this kinase assay the transfer of the terminal ^33P-phosphate in ^33P-ATP to a peptide substrate is interrogated. The assay was carried out in 384-well plates to a final volume of 50 μL per well containing approximately 6 nM DNA-PK, 50 mM HEPES (pH 7.5), 10 mM MgCl2, 25 mM NaCl, 0.01% BSA, 1 mM DTT, 10 μg/mL sheared double-stranded DNA (obtained from Sigma), 0.8 mg/mL DNA-PK peptide (Glu-Pro-Pro-Leu-Ser-Gln-Glu-Ala-Phe-Ala-Asp-Leu-Trp-Lys-Lys-Lys, obtained from American Peptide), and 100 μM ATP.
Accordingly, compounds of the invention were dissolved in DMSO to make 10 mM initial stock solutions. Serial dilutions in DMSO were then made to obtain the final solutions for the assay. A 0.75 μL aliquot of DMSO or inhibitor in DMSO was added to each well, followed by the addition of ATP substrate solution containing ^33P-ATP (obtained from Perkin Elmer). The reaction was started by the addition of DNA-PK, peptide and ds-DNA. After 45 min, the reaction was quenched with 25 μL of 5% phosphoric acid. The reaction mixture was transferred to MultiScreen HTS 384-well PH plates (obtained from Millipore), allowed to bind for one hour, and washed three times with 1% phosphoric acid. Following the addition of 50 μL of Ultima Gold™ high efficiency scintillant (obtained from Perkin Elmer), the samples were counted in a Packard TopCount NXT Microplate Scintillation and Luminescence Counter (Packard BioScience). The Ki values were calculated using Microsoft Excel Solver macros to fit the data to the kinetic model for competitive tight-binding inhibition.

Ki [nM]	SMILES
< 100	COC(=O)c1cccnc1N[C@H]1CC[C@@H](Oc2cc(N3CCOCC3)cc3nccnc23)CC1 [Compound 202]
< 100	N#Cc1ccc(N[C@H]2CC[C@@H](Oc3cc(N4CCOCC4)cc4nccnc34)CC2)nn1 [Compound 55]
< 100	N#Cc1cccc(N[C@H]2CC[C@@H](Oc3cc(N4CCOCC4)cc4nccnc34)CC2)n1 [Compound 195]
< 100	N#Cc1cnc(N[C@H]2CC[C@@H](Oc3cc(N4CCOCC4)cc4nccnc34)CC2)nc1 [Compound 44]
< 100	O=C(N[C@H]1CC[C@@H](Oc2cc(N3CCOCC3)cc3nccnc23)CC1)C1CC1 [Compound 61]
< 100	Fc1cc(F)nc(N[C@H]2CC[C@@H](Oc3cc(N4CCOCC4)cc4nccnc34)CC2)n1 [Compound 104]
< 100	CNC(=O)c1ccc(N[C@H]2CC[C@@H](Oc3cc(N4CCOCC4)cc4nccnc34)CC2)nc1 [Compound 144]
< 100	Fc1ccnc(N[C@H]2CC[C@@H](Oc3cc(N4CCOCC4)cc4nccnc34)CC2)n1 [Compound 49]
< 100	COc1ccc(N[C@H]2CC[C@@H](Oc3cc(N4CCOCC4)cc4nccnc34)CC2)nc1 [Compound 206]
< 100	CN1CCN(c2ncc(C(=O)N[C@H]3CC[C@@H](Oc4cc(N5CCOCC5)cc5nccnc45)CC3)cn2)CC1 [Compound 199]
< 100	c1cc(N[C@H]2CC[C@@H](Oc3cc(N4CCOCC4)cc4nccnc34)CC2)nc(C2CC2)n1 [Compound 267]
< 100	COCc1cnc(N[C@H]2CC[C@@H](Oc3cc(N4CCOCC4)cc4nccnc34)CC2)nc1 [Compound 161]
< 100	O=C(O)c1ccnc(N[C@H]2CC[C@@H](Oc3cc(N4CCOCC4)cc4nccnc34)CC2)n1 [Compound 93]
< 100	COCCNc1cc(N[C@H]2CC[C@@H](Oc3cc(N4CCOCC4)cc4nccnc34)CC2)ncn1 [Compound 263]
< 100	OCc1cnc(N[C@H]2CC[C@@H](Oc3cc(N4CCOCC4)cc4nccnc34)CC2)nc1 [Compound 94]
< 100	C1=C(c2cc(O[C@H]3CC[C@@H](Nc4ncccn4)CC3)c3nccnc3c2)CCOC1 [Compound 36, N-[(cis)-4-[7-(3,6-dihydro-2H-pyran-4-yl)quinoxalin-5-yl]oxycyclohexyl]pyrimidin-2-amine]
< 100	Oc1cnc(N[C@H]2CC[C@@H](Oc3cc(N4CCOCC4)cc4nccnc34)CC2)nc1 [Compound 158]
< 100	c1cnc(N[C@H]2CC[C@@H](Oc3cc(N4C[C@H]5CC[C@@H](C4)O5)cc4nccnc34)CC2)nc1 [Compound 53]
< 100	COc1cnc(N[C@H]2CC[C@@H](Oc3cc(N4CCOCC4)cc4nccnc34)CC2)nc1 [Compound 134, 5-methoxy-N-((cis)-4-((7-morpholinoquinoxalin-5-yl)oxy)cyclohexyl)pyrimidin-2-amine]
< 100	c1cnc(N[C@H]2CC[C@@H](Nc3cc(N4CCOCC4)cc4nonc34)CC2)nc1 [Compound 23, (cis)-N^1-(6-morpholinobenzo[c][1,2,5]oxadiazol-4-yl)-N^4-(pyrimidin-2-yl)cyclohexane-1,4-diamine]
< 100	Clc1cc(N[C@H]2CC[C@@H](Oc3cc(N4CCOCC4)cc4nccnc34)CC2)ncn1 [Compound 39]
< 100	N#Cc1ccc(N[C@H]2CC[C@@H](Oc3cc(N4CCOCC4)cc4nccnc34)CC2)nc1 [Compound 59]

Ki [nM]	SMILES
< 100	c1ncc(N[C@H]2CC[C@@H](Nc3cc(N4CCOCC4)cc4nccnc34)CC2)cn1 [Compound 30]
< 100	c1cnc(N[C@H]2CC[C@@H](Oc3cc(N4CCOCC4)cc4nccnc34)CC2)cn1 [Compound 33]
< 100	NC(=O)c1cnc(N[C@H]2CC[C@@H](Oc3cc(N4CCOCC4)cc4nccnc34)CC2)nc1 [Compound 65]
< 100	Fc1c(Cl)ncnc1N[C@H]1CC[C@@H](Oc2cc(N3CCOCC3)cc3nccnc23)CC1 [Compound 277]
< 100	Cc1nc(N[C@H]2CC[C@@H](Oc3cc(N4CCOCC4)cc4nccnc34)CC2)ccc1C#N [Compound 241]
< 100	CCN(CC)c1cnc(N[C@H]2CC[C@@H](Oc3cc(N4CCOCC4)cc4nccnc34)CC2)nc1 [Compound 155]
< 100	OC1CCN(c2ccnc(N[C@H]3CC[C@@H](Oc4cc(N5CCOCC5)cc5nccnc45)CC3)n2)C1 (some centres unmarked) [Compound 187]
< 100	Fc1nccc(N[C@H]2CC[C@@H](Oc3cc(N4CCOCC4)cc4nccnc34)CC2)n1 [Compound 50]
< 100	CC(C)Oc1cnc(N[C@H]2CC[C@@H](Oc3cc(N4CCOCC4)cc4nccnc34)CC2)nc1 [Compound 247]
< 100	OCc1ccc(N[C@H]2CC[C@@H](Oc3cc(N4CCOCC4)cc4nccnc34)CC2)nc1 [Compound 160]
< 100	c1cnc(N[C@H]2CC[C@@H](Oc3cc(N4CCOCC4)cc4nccnc34)CC2)nc1 [Compound 28, N-((cis)-4-((7-morpholinoquinoxalin-5-yl)oxy)cyclohexyl)pyrimidin-2-amine]
< 100	c1cc(N[C@H]2CC[C@@H](Oc3cc(N4CCOCC4)cc4nccnc34)CC2)ccn1 [Compound 273]
< 100	CCOc1cc(N[C@H]2CC[C@@H](Oc3cc(N4CCOCC4)cc4nccnc34)CC2)nc(C)n1 [Compound 644]
< 100	FC(F)(F)c1ccc(N[C@H]2CC[C@@H](Oc3cc(N4CCOCC4)cc4nccnc34)CC2)nc1 [Compound 189]
< 100	CN1CCN(c2ccc(C(=O)N[C@H]3CC[C@@H](Oc4cc(N5CCOCC5)cc5nccnc45)CC3)cc2F)CC1 [Compound 200]
< 100	COc1ccc(N[C@H]2CC[C@@H](Oc3cc(N4CCOCC4)cc4nccnc34)CC2)nn1 [Compound 260]
< 100	CNC(=O)c1cnc(N[C@H]2CC[C@@H](Oc3cc(N4CCOCC4)cc4nccnc34)CC2)nc1 [Compound 71]
< 100	COc1cncc(N[C@H]2CC[C@@H](Oc3cc(N4CCOCC4)cc4nccnc34)CC2)n1 [Compound 54]
< 100	Fc1cc(N[C@H]2CC[C@@H](Oc3cc(N4CCOCC4)cc4nccnc34)CC2)ncn1 [Compound 51]
< 100	C[C@H](CO)Nc1ncnc(N[C@H]2CC[C@@H](Oc3cc(N4CCOCC4)cc4nccnc34)CC2)c1F [Compound 380]
< 100	Fc1cnc(N[C@H]2CC[C@@H](Oc3cc(N4CCOCC4)cc4nccnc34)CC2)nc1 [Compound 37]
< 100	c1cncc(N[C@H]2CC[C@@H](Oc3cc(N4CCOCC4)cc4nccnc34)CC2)c1 [Compound 272]

Source: US12121524B2, “DNA-PK inhibitors” (VERTEX PHARMACEUTICALS INCORPORATED, priority 2018, dated 2024)
